According to BindingDB's records for doi:10.1016/j.bmcl.2009.04.116 (Banyu Pharmaceutical, 2009):

Each molecule was assayed against Nociceptin receptor (Homo sapiens, UniProt P41146) (assay: In Vitro Binding Assay (IC50) and In Vitro Agonism/Antagonism Measurements (EC50/IC50)). Conditions: not given.
Description: IC50 values are calculated using GraphPad Prism. Agonist/antagonist activities were measured by the [35S]GTPgamma-S binding to proteins using membrane fractions of CHO cells expressing ORL1. Nonspecific binding is determined in the presence of 10 uM unlabeled GTPgammaS. Membrane-bound radioactivity is measured using a TopCount-HTS (PerkinElmer). Specific binding of [35S]GTPgammaS is determined as a difference between the control (in the presence of appropriate concentration of nociceptin), and the baseline (in the presence of DMSO instead of compound). EC50/IC50 values are calculated from % of specific binding in the presence of various concentration of the compound using GraphPad Prism 3.03.

Nociceptin receptor, sequence (P41146 whole entry): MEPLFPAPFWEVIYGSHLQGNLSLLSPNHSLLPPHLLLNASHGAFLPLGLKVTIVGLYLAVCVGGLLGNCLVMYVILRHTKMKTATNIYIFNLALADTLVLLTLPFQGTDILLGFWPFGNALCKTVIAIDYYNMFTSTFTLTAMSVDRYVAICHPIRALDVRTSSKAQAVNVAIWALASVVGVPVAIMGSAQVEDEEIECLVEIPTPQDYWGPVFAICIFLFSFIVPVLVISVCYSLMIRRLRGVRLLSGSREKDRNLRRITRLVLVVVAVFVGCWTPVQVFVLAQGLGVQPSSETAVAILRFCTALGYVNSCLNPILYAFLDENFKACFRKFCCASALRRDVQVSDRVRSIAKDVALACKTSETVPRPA

SMILES | EC50
Cc1ccc(-c2c(C)c(CNC3CCCC3F)nn2-c2ncccc2Cl)cn1 (stereo not drawn) [arylpyrazole, 27] | 7.1 nM
Cc1ncc(-c2c(C)c(CN[C@H]3CC[C@@H](F)C3)nn2-c2ncccc2Cl)cc1F [arylpyrazole, 31] | 0.31 nM
Cc1ccc(-c2c(C)c(CN[C@H]3CC[C@@H](F)C3)nn2-c2ncccc2Cl)cn1 [arylpyrazole, 28] | 1 nM
Cc1ccc(-c2c(C)c(CNC3CCC(F)(F)C3)nn2-c2ncccc2Cl)cn1 (stereo not drawn) [arylpyrazole, 29] | 4.5 nM
Cc1ncc(-c2c(C)c(CNC3CCCC3)nn2-c2ncccc2Cl)cc1F [arylpyrazole, 30] | 1.2 nM

Same assay, conditions: pH 7.4; 37 °C

SMILES | EC50
Cc1c(CNC(C)C)nn(-c2ccc(Cl)cc2Cl)c1-c1ccc(Cl)cc1 [arylpyrazole, 1] | 480 nM
Cc1c(CNC2CCCC2)nn(-c2ncccc2Cl)c1-c1ccc(Cl)nc1 [arylpyrazole, 18] | 12 nM
Cc1ccc(-c2c(C)c(CNC3CCCC3)nn2-c2ncccc2Cl)cn1 [arylpyrazole, 19] | 4.7 nM
